Laboratory results published in patent US10265374B2, “Occidiofungin formations and uses thereof” (MISSISSIPPI STATE UNIVERSITY, priority 2014, dated 2019).
Read-outs that look alike come from different tables or passages of the source. Values belong to the molecule of their own block, whether it stands above or below them. Starred links: 1 amine or outer side, 2 acyl side, 3 side chain; linkers in the order of their positions; H or OH if unused. Positions of bridges follow the written chain, without caps; N, C: chain ends. Non-standard residues stand in square brackets, D forms with d. Residues, ends and D or L forms follow the SMILES beside them. ξ: configuration not given here. X1 = CCCCCCCCCCCC(OC1OCC(O)C(O)C1O)C(O)C(O)CC(CC(=O)[*:1])N[*:2]; ξTyr(βOH) = NC(C(=O)O)C(O)c1ccc(O)cc1; ξAsn(3ξ-OH) = NC(=O)C(O)C(N)C(=O)O; Dab = NCC[CH](N)C(=O)O

Experiments:
[1] = In vitro toxicity screening (CellTiter-Blue cell viability, 48 hours); type: cell-based, human; settings: human
Text: Cancer cell lines, OVCAR8 (Center for Cancer Research (OVAR.8; Sample ID 25)), SW1088 (ATCC-HTB-12), and Toledo (ATCC CRL-2631), and normal human neonatal dermal fibroblasts cell line (ATCC-PCS-201-010) were passaged and prepped as previously described (See References 15-17). OVCAR8, SW1088, and Toledo2631 are ovarian, brain, and B-cell lymphoma cancer cell lines, respectively. This panel of cell lines was chosen based, in part, on their being from very different cancer types in order to discern whether occidiofungin would have a broad spectrum activity towards cancer cell lines of vastly different parental organ/cell types. OVCAR8 cells are widely used in the field of cancer therapeutic research as a panel representative of ovarian cancer in screening experiments for identifying both ovarian-specific and non-specific (i.e., anti-neoplastic activity on multiple cancer cell types) therapeutic agents (See References 28-30). Similarly, SW1088 cells are widely used in the field of cancer therapeutic research as a panel representative of glioma (the most common brain cancer) in screening experiments for identifying both glioma-specific and non-specific therapeutic agents (See References 31-32). Toledo 2631 cells are derived from lymphoma cells, and are used in the field of cancer therapeutic research for identifying lymphoma-specific and non-specific therapeutic agents (See, e.g., Reference 33). […] Cell counts per plate were calculated to be approximately 50,000 cells/mL. A 10× stock solution of occidiofungin was prepared at 65 μM concentration in 10% dimethyl sulfoxide (DMSO). Two-fold serial dilutions on a 96 well plate were set up in triplicate with starting concentration of 6.5 μM and a final concentration of 3 nM. Bortezomib was used as a comparator for toxicity against human fibroblast and was serially diluted two-fold starting at a concentration of 5 μM and ending at 2.5 nM. Bortezomib is used clinically against myeloma and lymphoma cancers in patients refractory against other chemotherapeutics (See References 18, 19). Furthermore, bortezomib has shown efficacy against a variety of solid tumors and cancer cell lines, making this an appropriate comparison molecule in the panel of cell lines chosen (See References 34-35). The plates were then incubated at 37° C. in 5% CO2 for 48 hours. After 48 hours, cell viability was monitored using CellTiter-Blue (Promega) cell viability assay by measuring the fluorescence emission of a redox activated dye (579EX/584EM) using a POLARstar Omega microplate reader (BMG Labtech).

[2] = tested on: normal cells with lower metobolism; settings: cited from earlier work
[3] = Pharmacokinetics of occidiofungin in DOPC or DOPC:DPPG vesicles; type: in vivo, mice; settings: for half-life: female, BALB/c
Method: Entrapment of occidiofungin in vesicles was done using 1,2-Dioleoyl-sn-glycero-3-phosphocholine (DOPC) and 1,2-dipalmitoyl-sn-glycero-3-[phospho-rac-(3-lysyl(1-glycerol))] (DPPG) from Avanti polar lipids. Lipid cake formation and subsequent hydration was done according to the manufacturer's recommendation. Briefly, 20 mg/ml of DOPC in chloroform was placed in a glass beaker and dried by vacuum evaporation to remove the organic solvent. The lipid film formed was hydrated using a 1 μg/μl solution of occidiofungin in 1.5% (2-Hydroxypropyl)-β-cyclodextrin (Alfa Aesar), while maintaining the lipid concentration at 20 mg/ml and the solution was sonicated to form the vesicles. Similarly, DPPG was mixed with DOPC at a ratio of 9:1 (DOPC:DPPG) to make a homogenous lipid mixture at a concentration of 20 mg/ml and the same process of drying and hydration was repeated to make vesicles. Following vesicle formation, estimation of the amount of occidiofungin trapped inside each type of vesicle was done. The mixture containing free and vesicle trapped occidiofungin was passed through a gel filtration column containing Sephadex G-10 beads. The void volume (containing only the vesicle trapped occidiofungin) was collected and occidiofungin extracted using methanol (50% final concentration). Liquid chromatography was done on the extracted sample, and a standard and the concentration of occidiofungin in the extracted sample was estimated by a comparison of peak volumes.
Occidiofungin in DOPC and DOPC-DPPG, at a concentration of 2.5 mg/kg, with ˜1.25 mg/kg entrapped in vesicles, was administered to six female BALB/c mice respectively via intravenous administration. […] The mice were weighed prior to the start of the experiment and every 24 hours post injection (hpi).
Blood was drawn at time points 1 hpi, 3 hpi, 5 hpi, 7 hpi, 9 hpi, 12 hpi, 18 hpi, 24 hpi and 48 hpi. 15 μl of blood was drawn from the lateral saphenous vein of each mouse for the first three time points. Blood from three mice were pooled together and added to 5 μl of 6.4% citric acid to prevent coagulation. From the fourth time point, blood was drawn from the tail vein of the mice. Blood samples were spun down at 13000 rpm for 10 minutes to separate the plasma. The plasma and the blood pellet obtained were stored separately at −20° C. until analysis. The plasma samples were thawed and the occidiofungin was extracted using a final concentration of 50% methanol. The protein precipitate was spun down at 13000 rpm for 10 minutes and the supernatant was used for analysis. Liquid chromatography was done using Acclaim 120 C18 columns (Length: 150 mm; I.D: 2.1 mm; 5 μm) to purify the occidiofungin in the sample. The occidiofungin was then subjected to MS/MS. Fragmentation of the occidiofungin (parent mass 1200 and 1216 Da) was carried out and the fragment of 1068 and 1084 Da m/z, which corresponds to the occidiofungin molecule (A and B forms, respectively) without the xylose sugar, was used for quantification of occidiofungin. A calibration curve constructed using standard concentrations of occidiofungin in plasma was used to analyze the samples obtained from the mice for pharmacokinetics (See FIGS. 6A-6B & 7A-7B).

SMILES: CC(C)C[C@H](NC(=O)[C@H](Cc1ccccc1)NC(=O)c1cnccn1)B(O)O [Bortezomib, bortezomib, reference compound]
CC50 at 48 h [1]: 4.09 µM | toxicity in normal cells [2]: micromolar range

half-life ([3]; mouse, in vivo, iv, 2.5 mg/kg): 14.6 h | ke1 ([3]; mouse, in vivo, iv, 2.5 mg/kg): 0.0474 h⁻¹
SMILES: CCCCCCCCCCCC(OC1OCC(O)C(O)C1O)C(O)C(O)CC1CC(=O)NC(CO)C(=O)NC(C(O)c2ccc(O)cc2)C(=O)NC(CCN)C(=O)NCC(=O)NC(CC(N)=O)C(=O)NC(CO)C(=O)NC(CC(N)=O)C(=O)N1 (stereo not drawn) [OCFIN-A] (S[ξTyr(βOH)][Dab]GNSN; linker N-C via X1; configuration not given here)

SMILES: CCCCCCCCCCCC(OC1OCC(O)C(O)C1O)C(O)C(O)CC1CC(=O)NC(CO)C(=O)NC(C(O)c2ccc(O)cc2)C(=O)NC(CCN)C(=O)NCC(=O)NC(CC(N)=O)C(=O)NC(CO)C(=O)NC(C(O)C(N)=O)C(=O)N1 (stereo not drawn) [OCFIN-B] (S[ξTyr(βOH)][Dab]GNS[ξAsn(3ξ-OH)]; linker N-C via X1; configuration not given here)
half-life ([3]; mouse, in vivo, iv, packaged in DOPC:DPPG (90:10) vesicles, 2.5 mg/kg i.v., mice, read-out: t½ (converted)): 14.8 h | ke1 ([3]; packaged in DOPC:DPPG (90:10) vesicles, 2.5 mg/kg i.v., mice): 0.0467 h⁻¹
